Measured values as given in patent US9833497B2, “Human originated EGF domain proteins and use of the same” (CHENGDU SOURCEBIO LIMITED-LIABILITY COMPANY, priority 2013, dated 2017).

Key:
Type in all cases: cell-based
E. coli DH5α = test: Antibacterial activity: MIC and growth curve against E. coli DH5α in 96-well plate; conditions: minimal inhibitory concentration against E. coli DH5α; 96-well plate, 5×10^5 CFU/mL, 37° C., judged after 8 h
Method in brief: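 Log-phase DH5α (OD600 about 0.5, 37° C, 185 rpm in LB) was pelleted, resuspended in fresh LB and seeded at 5×10^5 CFU/mL with recombinant protein at 50, 25 and 12.5 μg/mL (two-fold series), in triplicate. Plates were shaken at 175 rpm, 37° C, and OD600 was read every 30 min. MIC was the lowest concentration with no growth.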

E. coli BL21 = test: MIC against Gram-negative bacteria: E. coli BL21; conditions: E. coli BL21; 10 h cultivation at 37° C.; 5×10^5 CFU/mL
Method in brief: (§1)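 Two-fold serial dilutions of each purified human EGF domain protein, three replicate wells per level, were combined with bacteria at a final 5×10^5 CFU/mL in LB. Cultures were shaken at 175 rpm, 37° C. The MIC was taken as the minimum concentration preventing growth.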

Pseudomonas aeruginosa = test: MIC against Gram-negative bacteria: Pseudomonas aeruginosa; conditions: P. aeruginosa; 10 h cultivation at 37° C.; 5×10^5 CFU/mL
Method in brief: as §1

Klebsiella pneumonia = test: MIC against Gram-negative bacteria: Klebsiella pneumonia; conditions: K. pneumonia; 10 h cultivation at 37° C.; 5×10^5 CFU/mL
Method in brief: as §1

Enterobacter cloacae = test: MIC against Gram-negative bacteria: Enterobacter cloacae; conditions: E. cloacae; 10 h cultivation at 37° C.; 5×10^5 CFU/mL
Method in brief: as §1

Aeromonas hydrophila = test: MIC against Gram-negative bacteria: Aeromonas hydrophila; conditions: A. hydrophila; 10 h cultivation at 37° C.; 5×10^5 CFU/mL
Method in brief: as §1

Citrobacter diversus = test: MIC against Gram-negative bacteria: Citrobacter diversus; conditions: C. diversus; 10 h cultivation at 37° C.; 5×10^5 CFU/mL
Method in brief: as §1

Moraxella catarrhalis = test: MIC against Gram-negative bacteria: Moraxella catarrhalis; conditions: M. catarrhalis; 10 h cultivation at 37° C.; 5×10^5 CFU/mL
Method in brief: as §1

Proteus mirabilis = test: MIC against Gram-negative bacteria: Proteus mirabilis; conditions: P. mirabilis; 10 h cultivation at 37° C.; 5×10^5 CFU/mL
Method in brief: as §1

Proteus vulgaris = test: MIC against Gram-negative bacteria: Proteus vulgaris; conditions: P. vulgaris; 10 h cultivation at 37° C.; 5×10^5 CFU/mL
Method in brief: as §1

Serratia marcescens = test: MIC against Gram-negative bacteria: Serratia marcescens; conditions: S. marcescens; 10 h cultivation at 37° C.; 5×10^5 CFU/mL
Method in brief: as §1

Substance | MIC (E. coli DH5α) | MIC (μg/mL) E. coli BL21 (E. coli BL21) | MIC (μg/mL) P. aeruginosa (Pseudomonas aeruginosa) | MIC (μg/mL) K. pneumonia (Klebsiella pneumonia) | MIC (μg/mL) E. cloacae (Enterobacter cloacae) | MIC (μg/mL) A. hydrophila (Aeromonas hydrophila) | MIC (μg/mL) C. diversus (Citrobacter diversus) | MIC (μg/mL) M. catarrhalis (Moraxella catarrhalis) | MIC (μg/mL) P. mirabilis (Proteus mirabilis) | MIC (μg/mL) P. vulgaris (Proteus vulgaris) | MIC (μg/mL) S. marcescens (Serratia marcescens)
PRT831 (DGRHCVRRSPCANRNGSCMHRCQVVRGLARCECHVGYQLAADGKACE; listed as Homo sapiens) | 25 µg/mL | 25 µg/mL | 12.5 µg/mL | 25 µg/mL | 12.5 µg/mL | 25 µg/mL | 50 µg/mL | 12.5 µg/mL | 50 µg/mL | 25 µg/mL | 12.5 µg/mL
PRT832 (DVDECAAGLAQCAHGCLNTQGSFKCVCHAGYELGADGRQCY; listed as Homo sapiens) | 50 µg/mL | 12.5 µg/mL | 12.5 µg/mL | 12.5 µg/mL | 25 µg/mL | 12.5 µg/mL | 25 µg/mL | 12.5 µg/mL | 12.5 µg/mL | 25 µg/mL | 12.5 µg/mL
PRT833 (CEANNGGCSHGCSHTSAGPLCTCPRGYELDTDQRTC; listed as Homo sapiens) | 12.5 µg/mL | 25 µg/mL | 12.5 µg/mL | 12.5 µg/mL | 50 µg/mL | 12.5 µg/mL | 50 µg/mL | 12.5 µg/mL | 25 µg/mL | 50 µg/mL | 12.5 µg/mL
PRT834 (DCADSPCCQQVCTNNPGGYECGCYAGYRLSADGCGCE; listed as Homo sapiens) | 50 µg/mL | 25 µg/mL | 12.5 µg/mL | 25 µg/mL | 50 µg/mL | 25 µg/mL | 12.5 µg/mL | 25 µg/mL | 50 µg/mL | 12.5 µg/mL | 25 µg/mL
PRT835 (DVDECASSRGGCEHHCTNLAGSFQCSCEAGYRLHEDRRGCS; listed as Homo sapiens) | 25 µg/mL | 50 µg/mL | 25 µg/mL | 12.5 µg/mL | 50 µg/mL | 25 µg/mL | 12.5 µg/mL | 25 µg/mL | 50 µg/mL | 12.5 µg/mL | 25 µg/mL
PRT836 (FGHDCSLTCDDCRNGGTCLLGLDGCDCPEGWTGLICN; listed as Homo sapiens) | 50 µg/mL | 12.5 µg/mL | 50 µg/mL | 12.5 µg/mL | 50 µg/mL | 12.5 µg/mL | 25 µg/mL | 12.5 µg/mL | 25 µg/mL | 25 µg/mL | 12.5 µg/mL
PRT837 (RFSLCPGGCQSHGQCQPPGVCACEPGWGGPD; listed as Homo sapiens) | 25 µg/mL | 12.5 µg/mL | 25 µg/mL | 25 µg/mL | 12.5 µg/mL | 25 µg/mL | 12.5 µg/mL | 25 µg/mL | 12.5 µg/mL | 12.5 µg/mL | 12.5 µg/mL
PRT838 (GLQECSAYCGSHGTCASPLGPCRCEPGFLGRACD; listed as Homo sapiens) | 50 µg/mL | 12.5 µg/mL | 50 µg/mL | 12.5 µg/mL | 25 µg/mL | 50 µg/mL | 25 µg/mL | 12.5 µg/mL | 25 µg/mL | 12.5 µg/mL | 25 µg/mL
PRT839 (DVDECRLGLARCHPRATCLNTPLSYECHCQRGYQGDGISHCN; listed as Homo sapiens) | 12.5 µg/mL | 25 µg/mL | 12.5 µg/mL | 12.5 µg/mL | 12.5 µg/mL | 12.5 µg/mL | 25 µg/mL | 50 µg/mL | 25 µg/mL | 12.5 µg/mL | 50 µg/mL
PRT840 (GSARCGSGGPGSCPVPQECVPQDGAAGAGLCRCPQGWAGPHCR; listed as Homo sapiens) | 25 µg/mL | 12.5 µg/mL | 25 µg/mL | 25 µg/mL | 12.5 µg/mL | 25 µg/mL | 12.5 µg/mL | 25 µg/mL | 12.5 µg/mL | 25 µg/mL | 25 µg/mL
PRT841 (PEDECANGHHDCNETQNCHDQPHGYECSCKTGYTMDNMT; listed as Homo sapiens) | 12.5 µg/mL | 25 µg/mL | 12.5 µg/mL | 50 µg/mL | 12.5 µg/mL | 50 µg/mL | 12.5 µg/mL | 50 µg/mL | 12.5 µg/mL | 50 µg/mL | 12.5 µg/mL
PRT842 (CGCSFHSHCRKRGPGFCDECQDWTWGEHCERCRPGSFGNATGSRGCRP; listed as Homo sapiens) | 12.5 µg/mL | 12.5 µg/mL | 25 µg/mL | 25 µg/mL | 12.5 µg/mL | 25 µg/mL | 12.5 µg/mL | 25 µg/mL | 12.5 µg/mL | 12.5 µg/mL | 25 µg/mL
PRT843 (CQCNGHGDPRRGHCDNLSGLCFCQDHTEGAHCQLCSPGYYGDPRAGGSCFR; listed as Homo sapiens) | 25 µg/mL | 12.5 µg/mL | 12.5 µg/mL | 12.5 µg/mL | 25 µg/mL | 50 µg/mL | 25 µg/mL | 12.5 µg/mL | 25 µg/mL | 25 µg/mL | 50 µg/mL
